The test system of assay [1] is brown dog ticks (Rhipicephalus sanguineus) nymphs. Nature of the assay: Efficacy of various isoxazolines against brown dog ticks on Guinea pigs (Example 4). To be noted: po, Guinea pigs, oral 10 mg/kg on Day 1, infested Day Zero, engorged detached nymphs counted from Day 4, read-out: Inhibition (efficacy on engorged nymphs). It counts as in vivo. The protocol: In this experiment, Guinea pigs were randomly assigned to a treatment group or a negative control (untreated) group. Each group consisted of three Guinea pigs. On Day Zero, each Guinea pig was infested with 100 vital nymphs of R. sanguineus. On Day 1, the Guinea pigs in the treatment groups were orally administered 10 mg/kg bodyweight of various isoxazolines dissolved in 7% DMF-premix and 93% purified water (aqua ad injectabilia). Engorged, detached nymphs were counted (eN) from Day 4 to […] on engorged nymphs (%) (eN control group—EeN treatment group)×100 eN control group
In addition, collected ticks were assessed for molting into the next stage.

Assay [2] deals with cat fleas (Ctenocephalides felis). Put plainly: Efficacy of various isoxazolines against cat fleas on mice (Example 3). It is filed as in vivo. Conditions: Ctenocephalides felis, po, read-out: Flea inhibition relative to negative control. The protocol: In this experiment, mice were randomly assigned to a treatment group or a negative control (untreated) group. Each group consisted of three mice. The mice in the treatment groups were orally administered 20 mg/kg bodyweight of various isoxazolines dissolved in 7% DMF-premix and 93% purified water (aqua ad injectabilia). The application volume of these treatments was 0.01 mL/g bodyweight. One hour after treatment, each mouse was sedated and generally infested (whole body) with 30 vital, adult fleas (C. felis). To achieve this, the sedated mice were placed into an infestation-jar, and the fleas were placed directly onto the fur. After approximately 30 minutes of feeding, fleas were recovered from the mice. Assessments for inhibition and mortality were conducted 1 hr, 24 hr, and 48 hr after each infestation. The efficacy was calculated as the percentage of inhibited fleas in the treatment groups relative to the negative control group.

The mark [3] stands for this setting: 1 h, mice, oral 20 mg/kg, infested 1 hr after treatment, 1 hr after infestation.
Where [4] appears, read: 24 h, mice, oral 20 mg/kg, infested 1 hr after treatment, 24 hr after infestation.
Setting [5] is: 48 h, mice, oral 20 mg/kg, infested 1 hr after treatment, 48 hr after infestation.

Each structure is given as a SMILES string. Read-outs that look alike come from different tables or passages of the source.

Results on 30 compounds are retold here after patent publication US20240239759A1, “ISOXAZOLINE COMPOSITIONS AND THEIR USE AS ANTIPARASITICS” (Intervet Inc., priority 2007, published 2024).

With `Cc1cc(C2=NOC(c3cc(Cl)cc(Cl)c3)(C(F)(F)F)C2)ccc1C(=O)Nc1ncc(C#N)cn1` (centres unmarked) [Compound 5-45], in assay [1], the pest or weed control at 10 mg/kg came to 0%. Also, the pest or weed control at 20 mg/kg is 0% in assay [2] (setting [3]), 92.2% in assay [2] (setting [4]) and 93.3% in assay [2] (setting [5]).
Take `Cc1cc(C2=NOC(c3cc(Cl)cc(Cl)c3)(C(F)(F)F)C2)ccc1C(=O)NN(C)c1ccccc1` (centres unmarked) [Compound 5-52]: the pest or weed control at 10 mg/kg in assay [1] came out at 93.4%. The pest or weed control at 20 mg/kg in assay [2] (setting [3]) amounted to 0%; in assay [2] (setting [4]) it was 96.7%; in assay [2] (setting [5]), 96.7%.
Regarding `Cc1cc(C2=NOC(c3cc(Cl)cc(Cl)c3)(C(F)(F)F)C2)ccc1C(=O)N[C@@H]1CCOC1` (some centres unmarked) [Compound 5-68], the pest or weed control at 10 mg/kg in assay [1] came out at 100%. In addition, the results for the pest or weed control at 20 mg/kg in assay [2] (setting [3]), in assay [2] (setting [4]) and in assay [2] (setting [5]) were 75.5%, 91.1% and 95.6%, respectively.
The matching figures for `CON=CNC(=O)c1ccc(C2=NOC(c3cc(Cl)cc(Cl)c3)(C(F)(F)F)C2)cc1Cl` (centres unmarked) [Compound 5-51]: 52.1%, 0%, 97.8% and 97.8%.
In the case of `CCOCN(C(=O)OC)C(=O)c1ccc(C2=NOC(c3cc(Cl)cc(Cl)c3)(C(F)(F)F)C2)cc1C` (centres unmarked) [Compound 5-65], in assay [1], the pest or weed control at 10 mg/kg is 79.2%. The pest or weed control at 20 mg/kg was determined as 58.8% in assay [2] (setting [3]), 92.2% in assay [2] (setting [4]) and 93.3% in assay [2] (setting [5]).
Consider `COCN(C(=O)OC)C(=O)c1ccc(C2=NOC(c3cc(Cl)cc(Cl)c3)(C(F)(F)F)C2)cc1I` (centres unmarked) [Compound 5-29], for which the pest or weed control at 20 mg/kg in assay [2] (setting [3]) came out at 0%; in assay [2] (setting [4]) it was 68.9%; in assay [2] (setting [5]), 68.9%.
`COC(CNC(=O)c1ccc(C2=NOC(c3cc(Cl)cc(Cl)c3)(C(F)(F)Cl)C2)cc1C)OC` (centres unmarked) [Compound 5-53]: the pest or weed control at 20 mg/kg in assay [2] (setting [3]) worked out at 0%; in assay [2] (setting [4]), 82.2%; in assay [2] (setting [5]) it was 91.1%.
Consider `COCN(C(=O)c1ccc(C2=NOC(c3cc(Cl)cc(Cl)c3)(C(F)(F)F)C2)cc1C)c1ncc(Cl)cn1` (centres unmarked) [Compound 5-28], for which the pest or weed control at 20 mg/kg turned out to be 1.1% in assay [2] (setting [3]), 70% in assay [2] (setting [4]) and 71.1% in assay [2] (setting [5]).
In the same order, the values of `COC(=O)N(C(=O)c1ccc(C2=NOC(c3cc(Cl)cc(Cl)c3)(C(F)(F)F)C2)cc1C)c1ncc(C#N)cn1` (centres unmarked) [Compound 5-31] are 0%, 65.6% and 65.6%.
As for `CC(=O)N(C(=O)c1ccc(C2=NOC(c3cc(Cl)cc(Cl)c3)(C(F)(F)F)C2)cc1C)c1ncc(Br)cn1` (centres unmarked) [Compound 5-22], the pest or weed control at 20 mg/kg was determined as 0% in assay [2] (setting [3]), 82.2% in assay [2] (setting [4]) and 83.3% in assay [2] (setting [5]).
Turning to `COCN(C(=O)OC)C(=O)c1ccc(C2=NOC(c3cc(Cl)cc(Cl)c3)(C(F)(F)F)C2)cc1Br` (centres unmarked) [Compound 5-26], the figures for the pest or weed control at 20 mg/kg in assay [2] (setting [3]), in assay [2] (setting [4]) and in assay [2] (setting [5]) were 0%, 77.8% and 77.8%, respectively.
Turning to `CC(NC(=O)c1ccc(C2=NOC(c3cc(Cl)c(Cl)c(Cl)c3)(C(F)(F)F)C2)cc1)C(=O)NCC(F)(F)F` (centres unmarked) [Compound 5-35], the figures for the pest or weed control at 20 mg/kg in assay [2] (setting [3]), in assay [2] (setting [4]) and in assay [2] (setting [5]) were 0%, 100% and 100%, respectively.
Take `CCO/C(N)=N\C(=O)c1ccc(C2=NOC(c3cc(Br)cc(Br)c3)(C(F)(F)F)C2)cc1C` (centres unmarked) [Compound 5-37]: the pest or weed control at 20 mg/kg in assay [2] (setting [3]) turned out to be 7.7%; in assay [2] (setting [4]), 99%; in assay [2] (setting [5]), 100%.
On to `CCNC(=O)CNC(=O)c1ccc(C2=NOC(c3cc(Cl)cc(Cl)c3)(C(F)(F)F)C2)cc1C` (centres unmarked) [Compound 14-1], for which the pest or weed control at 20 mg/kg in assay [2] (setting [3]) is 97.8%; in assay [2] (setting [4]), 100%; in assay [2] (setting [5]), 100%.
With `O=C(CNC(=O)c1ccc(C2=NOC(c3cc(C(F)(F)F)cc(C(F)(F)F)c3)(C(F)(F)F)C2)cc1)NCC(F)(F)F` (centres unmarked) [Compound 5-34], the pest or weed control at 20 mg/kg was found to be 2.3% in assay [2] (setting [3]), 96.6% in assay [2] (setting [4]) and 96.6% in assay [2] (setting [5]).
Turning to `COC(=O)N(C)C(=O)c1ccc(C2=NOC(c3cc(Cl)cc(Cl)c3)(C(F)(F)F)C2)cc1C` (centres unmarked) [Compound 5-16], the results for the pest or weed control at 20 mg/kg in assay [2] (setting [3]), in assay [2] (setting [4]) and in assay [2] (setting [5]) were 0%, 46.7% and 54.4%, respectively.
Regarding `CC(=O)N(C(=O)c1ccc(C2=NOC(c3cc(Cl)cc(Cl)c3)(C(F)(F)F)C2)cc1C)c1cnccn1` (centres unmarked) [Compound 5-32], the pest or weed control at 20 mg/kg in assay [2] (setting [3]) was 0%; in assay [2] (setting [4]) it was 70%; in assay [2] (setting [5]), 71.1%.
`Cc1cc(C2=NOC(c3cc(Cl)cc(Cl)c3)(C(F)(F)F)C2)ccc1C(=O)Nc1cncnc1` (centres unmarked) [Compound 5-55]: the pest or weed control at 20 mg/kg in assay [2] (setting [3]) came out at 0%; in assay [2] (setting [4]), 92.2%; in assay [2] (setting [5]) it was 93.3%.
As for `Cc1cc(C2=NOC(c3cc(Cl)cc(Cl)c3)(C(F)(F)F)C2)ccc1C(=O)N(C(=O)C(C)C)c1ncc(Cl)cn1` (centres unmarked) [Compound 5-23], the figures for the pest or weed control at 20 mg/kg in assay [2] (setting [3]), in assay [2] (setting [4]) and in assay [2] (setting [5]) were 0%, 87.8% and 94.4%, respectively.
Take `CC(=O)N(C(=O)c1ccc(C2=NOC(c3cc(Cl)cc(Cl)c3)(C(F)(F)F)C2)cc1C)N(C)c1ccccc1` (centres unmarked) [Compound 5-57]: the pest or weed control at 20 mg/kg in assay [2] (setting [3]) came to 0%; in assay [2] (setting [4]) it was 86.7%; in assay [2] (setting [5]), 87.7%.
With `Cc1cc(C2=NO[C@](c3cc(Cl)cc(Cl)c3)(C(F)(F)F)C2)ccc1C(=O)NCC(=O)NCC(F)(F)F` [Compound 11-1R], the pest or weed control at 20 mg/kg in assay [2] (setting [3]), in assay [2] (setting [4]) and in assay [2] (setting [5]) was 0% throughout.
Take `COC(=O)N(COCC(F)(F)F)C(=O)c1ccc(C2=NOC(c3cc(Cl)cc(Cl)c3)(C(F)(F)F)C2)cc1C` (centres unmarked) [Compound 5-25]: the pest or weed control at 20 mg/kg in assay [2] (setting [3]) was determined as 0%; in assay [2] (setting [4]), 75.6%; in assay [2] (setting [5]), 84.4%.
With `Cc1cc(C2=NOC(c3cc(Cl)cc(Cl)c3)(C(F)(F)F)C2)ccc1C(=O)N(C(=O)C(C)C)c1ncc(C#N)cn1` (centres unmarked) [Compound 5-18], the pest or weed control at 20 mg/kg in assay [2] (setting [3]) is 0%; in assay [2] (setting [4]), 54.4%; in assay [2] (setting [5]), 54.4%.
For the compound `C#CCNC(=O)CNC(=O)c1ccc(C2=NOC(c3cc(Cl)cc(Cl)c3)(C(F)(F)F)C2)cc1C` (centres unmarked) [Compound 5-67], the values for the pest or weed control at 20 mg/kg in assay [2] (setting [3]), in assay [2] (setting [4]) and in assay [2] (setting [5]) were 80%, 100% and 100%, respectively.
For the compound `CO/N=C\NC(=O)c1ccc(C2=NO[C@@](c3cc(Cl)cc(Cl)c3)(C(F)(F)F)C2)cc1C` [Compound 5-36], the pest or weed control at 20 mg/kg in assay [2] (setting [3]) worked out at 45.7%; in assay [2] (setting [4]), 99%; in assay [2] (setting [5]) it was 99%.
With `COC(=O)N(C(=O)c1ccc(C2=NOC(c3cc(Cl)cc(Cl)c3)(C(F)(F)F)C2)cc1C)c1cnc(Cl)cn1` (centres unmarked) [Compound 5-17], the pest or weed control at 20 mg/kg in assay [2] (setting [3]) worked out at 0%; in assay [2] (setting [4]) it was 36.7%; in assay [2] (setting [5]) it was 41.1%.
Turning to `Cc1cc(C2=NOC(c3cc(Cl)c(F)c(Cl)c3)(C(F)(F)F)C2)ccc1C(=O)NCC(=O)NCC(F)(F)F` (centres unmarked) [Compound 5-40], the pest or weed control at 20 mg/kg was 0% in assay [2] (1 h), 85.6% in assay [2] (24 h) and 85.6% in assay [2] (48 h).
As for `Cc1cc(C2=NOC(CCl)(c3cc(Cl)cc(Cl)c3)C2)ccc1C(=O)NCc1ccccn1` (centres unmarked) [Compound 5-13], the figures for the pest or weed control at 20 mg/kg in assay [2] (setting [3]), in assay [2] (setting [4]) and in assay [2] (setting [5]) were 16.7%, 18.9% and 18.9%, respectively.
On to `Cc1cc(C2=NO[C@@](c3cc(Cl)cc(Cl)c3)(C(F)(F)F)C2)ccc1C(=O)NCC(=O)NCC(F)(F)F` (stereo in doubt) [Compound 17-1], for which the pest or weed control at 20 mg/kg in assay [2] (setting [3]), in assay [2] (setting [4]) and in assay [2] (setting [5]) was 100% each time.
In the case of `CCN(C(=O)c1ccc(C2=NOC(c3cc(Cl)cc(Cl)c3)(C(F)(F)F)C2)cc1C)c1ncc(Cl)cn1` (centres unmarked) [Compound 5-21], the pest or weed control at 20 mg/kg in assay [2] (setting [3]) was 0%; in assay [2] (setting [4]), 75.6%; in assay [2] (setting [5]) it was 77.8%.
